Tests used:
plasma cells = assay: Plasma cell counts in spleen and bone marrow, established arthritis model; assay type: in vivo, male DBA/1 mice
Text: (B) Spleens harvested at the end of the study were dissociated, and red blood cells were lysed with ammonium-chloride-potassium (ACK) lysis buffer. 1.5 million cells per spleen were stained for flow cytometry, and live single lymphocytes were gated for plasma cells (CD138+ IgD−). Plasma cells numbers were normalized to total B cells in spleen (CD19+B220+).
(C) Bone marrow was isolated from femurs harvested at the end of the study, and samples were processed and analyzed as in (B).
In (B) and (C), ordinary one-way ANOVAs with Dunnett's multiple comparisons tests were performed.

tumor-expressed BTK = molecular target: T1, tumor-expressed BTK (Homo sapiens, UniProt Q06187); assay: Intracranial TMD8 tumor model, BTK remaining in TMD8 cells; assay type: in vivo, female CB.17 SCID mice; conditions: 90 mg/kg orally every day for twelve days, vs vehicle
T1 construct: endogenous in cells; host or cells: TMD8 cells (human ABC-DLBCL) grown intracranially in CB.17 SCID mice
Experimental: (§1) TMD8 cells were implanted into female CB.17 SCID mice by intracranial injection of 5E5 TMD8 cells. Treatment with compound 1 begun the following day. Mice were treated orally every day for twelve days with either vehicle or 90 mg/kg of Compound 1. Brains were then harvested, dissociated into single cell suspensions and BTK level in TMD8 cells was assessed by flow cytometry. TMD8 cells in dissociated brain tissue were identified by human-specific surface markers (CD20+HLA+) and total numbers of TMD8 cells per brain is reported in (A, tumor burden). Percent BTK remaining in TMD8 cells (B) was calculated according to the below formula:
100*(tumor BTK MFI−background MFI)/(peak MFI−background MFI),
where background MFI and peak MFI were calculated using TMD8 cells treated, in vitro, overnight with 1 μM compound 1 or DMSO control, respectively. In FIG. 8,**** p<0.0001; Welch's t-test was used to compare mice treated with compound 1 to mice treated with vehicle.

Aiolos = assay: IMiD activity: Aiolos degradation in PBMCs by flow cytometry; assay type: cell-based; conditions: human PBMCs, 24 hours
Experimental: In addition, Compounds 1-24 were assayed for IMiD activity. Frozen human peripheral blood mononuclear cells (PBMCs) were thawed and treated with DMSO or compound for 24 hours and then fixed and permeabilized using a Foxp3/Transcription Factor Fixation/Permeabilization Kit (eBioscience, 00-5523). Cells were stained with fluorophore-conjugated antibodies against CD20 (Biolegend 302330), CD3 (BD Pharmingen 552127), and Aiolos (Biolegend 371106). An additional set of DMSO-treated PBMCs was stained for CD20, CD3, and an AlexaFluor 647-conjugated mouse IgG1 isotype control antibody (Biolegend 400136). Stained cells were run on an Attune NxT Acoustic Focusing Flow Cytometer (Thermo-Fisher A29004), and data was analyzed using FlowJo (v10.5.3) and GraphPad Prism (v7.00) software. Single lymphocytes were gated for B cells (CD20+CD3-) and T cells (CD3+CD20-), and the geometric mean fluorescence intensity (MFI) of Aiolos was calculated for each population. The MFI of the isotype control was calculated for each population and used to quantify background staining. Percent Aiolos degradation was calculated for each compound-treated sample using the following equation: […]
DC50 is the compound concentration degrading 50% of Aiolos. Dmax is the maximum percent Aiolos degradation in the assay.

intracranial TMD8 tumors = assay: Intracranial TMD8 tumor model, tumor burden; assay type: in vivo, female CB.17 SCID mice; conditions: 90 mg/kg orally every day for twelve days, vs vehicle
Text: TMD8 is a human activated B cell (ABC)-type diffuse large B cell lymphoma (DLBCL) cell line that is dependent on BTK signaling for survival (Davis, R. E., Ngo, V. N., Lenz, G., Tolar, P., Young, R. M., Romesser, P. B., Staudt, L. M. (2010). Chronic active B-cell-receptor signalling in diffuse large B-cell lymphoma. Nature, 463(7277), 88-92. doi: 10.1038/nature08638).
as §1, with “formula: […]” for “formula:”

BTK [1] = molecular target: T2, BTK (Mus musculus, UniProt P35991); assay: BTK level in B cells of dosed mice; assay type: in vivo, C57BL/6 mice; set-up: Single cell suspensions from each tissue were permeabilized and stained for lineage markers and intracellular BTK; from tissue; conditions: 30 mg/kg in water bottle; blood, spleens, peritoneum and bone marrow
Experimental: A separate group of mice received vehicle formulation as control. Blood spleens and femurs for each treated mice were harvested at the end of the study. Peritoneal lavage was also performed with PBS to harvest peritoneal resident lymphocyte.
To evaluate level of BTK in B cells, Single cell suspensions from each tissue were permeabilized and stained for lineage markers and intracellular BTK. B cells were gated on B220+ TCRbeta−, and T cells were gated on B220− and TCRbeta+.

BTK [2] = molecular target: T2, BTK; assay: BTK level in spleen B cells after NP-KLH immunization; assay type: in vivo, Mice; set-up: from tissue; host or cells: mouse spleen B cells (CD19+ TCRbeta-)
Experimental: Mice were immunized by intraperitoneal injection of 200 μL of immunogen containing 100 μg NP-32-KLH (Biosearch Technologies, Cat. N-5060-25,Lot. 156285-01) and 1% Alum (Alhydrogel, 2%, Invivogen Cat. Vac-alu-250, Batch 0001715532, Exp. July 2022), prepared in phosphate buffered saline. Group 1 mice were not immunized and used as control. Mice in Group 2 to 5 were dosed orally once a day from Day 1 to Day 7 with compounds or vehicle for six additional days and then sacrificed the following day. Splenocytes and bone marrow were harvested 24 hours following the final dosing of compound on Day 7. Spleens harvested at the end of the study were dissociated, and red blood cells were lysed with ammonium-chloride-potassium (ACK) lysis buffer. 1 million cells per tissue were stained for each flow cytometry panel.
Cells were permeabilized and stained for lineage markers and intracellular BTK. B cells were gated on CD19+ TCRbeta−, and T cells were gated on CD19− and TCRbeta+.

T2 sequence (P35991 whole entry): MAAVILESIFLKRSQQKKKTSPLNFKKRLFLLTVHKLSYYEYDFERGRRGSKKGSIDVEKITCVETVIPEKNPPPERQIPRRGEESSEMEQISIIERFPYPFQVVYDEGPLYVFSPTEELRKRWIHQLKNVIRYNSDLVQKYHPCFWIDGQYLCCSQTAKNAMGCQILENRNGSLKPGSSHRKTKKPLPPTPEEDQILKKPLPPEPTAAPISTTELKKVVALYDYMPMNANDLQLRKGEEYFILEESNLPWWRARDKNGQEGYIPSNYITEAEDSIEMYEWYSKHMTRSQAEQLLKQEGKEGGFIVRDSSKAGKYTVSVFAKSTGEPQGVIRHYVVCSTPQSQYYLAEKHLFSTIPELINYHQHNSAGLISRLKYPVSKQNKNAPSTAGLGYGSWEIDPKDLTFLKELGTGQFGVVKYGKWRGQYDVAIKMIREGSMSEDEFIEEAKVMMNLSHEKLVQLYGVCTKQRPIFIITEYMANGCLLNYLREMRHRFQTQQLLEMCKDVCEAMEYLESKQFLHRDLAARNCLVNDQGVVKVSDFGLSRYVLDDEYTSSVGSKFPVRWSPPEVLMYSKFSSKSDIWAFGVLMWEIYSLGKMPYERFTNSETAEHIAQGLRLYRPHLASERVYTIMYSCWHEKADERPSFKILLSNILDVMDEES
T1 sequence (Q06187 whole entry): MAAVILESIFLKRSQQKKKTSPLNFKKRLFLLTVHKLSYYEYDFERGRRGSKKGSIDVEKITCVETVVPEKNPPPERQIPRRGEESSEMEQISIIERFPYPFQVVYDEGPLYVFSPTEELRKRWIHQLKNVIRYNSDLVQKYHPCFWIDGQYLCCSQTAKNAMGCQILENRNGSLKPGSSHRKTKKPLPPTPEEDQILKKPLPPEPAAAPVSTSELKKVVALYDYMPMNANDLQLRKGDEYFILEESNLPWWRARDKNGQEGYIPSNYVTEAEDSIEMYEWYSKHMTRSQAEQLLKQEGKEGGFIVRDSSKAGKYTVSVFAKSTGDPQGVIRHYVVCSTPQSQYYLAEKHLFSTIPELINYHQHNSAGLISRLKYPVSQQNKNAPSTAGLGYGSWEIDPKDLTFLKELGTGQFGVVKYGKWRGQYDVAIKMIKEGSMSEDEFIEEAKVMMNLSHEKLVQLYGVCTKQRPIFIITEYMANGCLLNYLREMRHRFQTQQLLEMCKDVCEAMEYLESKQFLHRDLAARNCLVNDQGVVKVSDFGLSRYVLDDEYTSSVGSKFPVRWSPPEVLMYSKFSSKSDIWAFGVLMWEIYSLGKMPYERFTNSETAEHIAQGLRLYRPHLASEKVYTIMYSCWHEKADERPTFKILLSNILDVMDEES

BTK in TMD8 tumor cells (tumor-expressed BTK): degradation of tumor-expressed BTK | BTK in TMD8 tumor cells (tumor-expressed BTK; listed as compound 1): degraded BTK | DC50 (Aiolos; compound concentration degrading 50% of Aiolos): 631 nM | BTK level in B cells (BTK [1]): robust BTK degradation | BTK degradation in spleens (BTK [2]; NP-KLH immunized mice, oral once a day): robust BTK degradation | BTK levels (percent BTK remaining in B cells) (BTK [2]; spleen, 24 hours after the final dose, normalized to naive group): 13.4 % of baseline
SMILES: CN1CCN([C@@H]2CCCN(c3cnc(C(N)=O)c(Nc4ccc(C5CCN(CC6CCN(c7ccc(C(=O)N[C@H]8CCC(=O)NC8=O)nc7)CC6)CC5)cc4)n3)C2)C1=O [Compound 1]
plasma cells in spleen, normalized to total B cells (plasma cells; 30 mg/kg, vs 30 mg/kg rilzabrutinib and ibrutinib): significantly fewer plasma cells than mice treated with an equivalent dose of BTK inhibitors | plasma cells in spleen, normalized to total B cells (plasma cells; both doses (10 and 30 mg/kg), vs vehicle): significantly fewer plasma cells than vehicle-treated mice | plasma cell numbers in the bone marrow (plasma cells; vs vehicle and vs equivalent doses of rilzabrutinib and ibrutinib): significantly reduced plasma cell numbers | Dmax (Aiolos; maximum percent Aiolos degradation in the assay): 18.7% | tumor burden (total TMD8 cells per brain) (intracranial TMD8 tumors): reduced tumor burden | tumor burden (total TMD8 cells per brain) (intracranial TMD8 tumors; listed as compound 1): significantly reduced TMD8 tumor cells

From patent publication US20240336595A1, “BIFUNCTIONAL COMPOUNDS FOR DEGRADING BTK WITH DIMINISHED IMID ACTIVITY” (NURIX THERAPEUTICS, INC., priority 2021, published 2024)
